The values below come from article PMC7933930, “Development of a small molecule that corrects misfolding and increases secretion of Z α1‐antitrypsin” (EMBO Molecular Medicine, 2021).

The structures appear in SMILES notation. Like-named read-outs stand apart in the source and are kept apart here.

The subject of data set [1] is Z α1‐antitrypsin secretion in iPSC‐derived human hepatocytes (ZZ genotype). Put plainly: Secretion of Z α1‐antitrypsin from ZZ iPSC‐derived human hepatocytes. As to conditions: for EC50: Hepatocyte. It is filed as cell-based. As to the method:
The ability of GSK716 to block Z α1‐antitrypsin polymerisation in the ER during folding was assessed by adding GSK716 to CHO‐TET‐ON‐Z‐A1AT cells (Ordóñez et al, 2013) with simultaneous induction of Z α1‐antitrypsin expression using doxycycline. […] Similar potency between the effects on secretion and polymerisation was observed throughout members of the lead series supporting the hypothesis that these effects are caused by the same pharmacological mode of action.
(§1) Figure 2 GSK716 inhibits polymerisation of Z α1‐antitrypsin in cell models of disease • A GSK716 was added to CHO‐TET‐ON‐Z‐A1AT cells (Ordóñez et al, 2013) with simultaneous induction of Z α1‐antitrypsin expression using doxycycline, and polymer load was quantified with the 2C1 monoclonal antibody that is specific to pathological polymers of α1‐antitrypsin (Miranda et al, 2010). […] Data were normalised to vehicle and a control compound from the GSK716 series at saturating concentration. […] It induced an approximately threefold increase in secreted levels of Z α1‐antitrypsin compared with vehicle control. […] For every time point, NP‐40‐soluble and NP‐40‐insoluble fractions were separated and immunoprecipitated with the 2C1 mAb and resolved by 4–12% w/v SDS–PAGE and α1‐antitrypsin detected by immunoblotting. […] Cell viability was measured by Cell Counting Kit‐8. […] Samples were resolved by 4–12% w/v acrylamide SDS–PAGE and detected by autoradiography. • H The graphs show the effect of GSK716 on intracellular and extracellular Z α1‐antitrypsin (mean ± SEM, n = 2).
The accumulation and clearance of Z α1‐antitrypsin polymer was measured with the 2C1 monoclonal antibody that is specific for polymerised antitrypsin in CHO‐TET‐ON‐Z‐α1AT cells (Ordóñez et al, 2013) and iPSC‐derived hepatocytes generated from a patient with a PiZZ genotype (Yusa et al, 2011). Secretion of Z α1‐antitrypsin was determined by TR‐FRET. Cell viability was analysed with Cell Counting Kit‐8 (Sigma) after treating the cells with 10 µM GSK716 or 0.1% v/v DMSO (vehicle) and an increasing concentration of tunicamycin (0.8–0.01 µg/ml).

Another data set deals with CHO‐TET‐ON‐Z‐A1AT cells. Kind of data set: Tunicamycin sensitivity, cell viability (Cell Counting Kit‐8), cells expressing Z α1‐antitrypsin. The format is cell-based. As to conditions: 10 μM GSK716, cells expressing Z α1‐antitrypsin, tunicamycin 36 h. As to the method:
as §1, with “control. This was apparent even after polymers had been allowed to form. Scale bar: 100 µm. Data presented as mean ± SD, n = 8 (secretion) and n = 6 (polymer inhibition). • E CHO tetracycline‐inducible cells expressing Z α1‐antitrypsin were induced with 0.5 μg/ml doxycycline for 48 h and treated with 10 μM GSK716.” for “control.”, “2). […]” for “2).”
(Formazan colour is commonly taken as a measure of viable cells.)

For another data set, the system named is human hepatocytes. Put plainly: Hepatocyte clearance, human. The format is in vitro ADME. As to the method: Williams E media supplemented with 2 mM L‐glutamine and 25 mM HEPES and test compound (final compound concentration 0.5 µM; final DMSO concentration 0.25% v/v) were preincubated at 37°C prior to the addition of a suspension of cryopreserved pooled hepatocytes (final cell density 0.5 × 10^6 viable cells/ml) to initiate the reaction. The final incubation volume was 500 µl. The reactions were stopped by transferring 50 µl of incubate to 100 µl acetonitrile containing internal standard at the appropriate time points (0, 5, 10, 20, 40 and 60 min, 0, 10, 20, 40, 60 and 120 min or 0, 20, 40, 60, 120 and 240 min). The control (lysed cells or vehicle) was incubated for 60, 120 or 240 min only. The termination plates were centrifuged at 2,500 rpm at 4°C for 30 min to precipitate the protein. Following protein precipitation, the sample supernatants were analysed by LC‐MS/MS. From a plot of loge peak area ratio (compound peak area/internal standard peak area) against time, the gradient of the line was determined and half‐life (t½) and intrinsic clearance (CLint) were calculated.

For another data set, the target named is Adrenergic α2C (Homo sapiens, UniProt P18825). Kind of data set: Off‐target panel: Adrenergic α2C (DRX). It is filed as cell-based. How it is done:
GSK716 selectivity and PK properties were profiled in order to investigate the suitability of GSK716 for progression into in vivo studies and the potential for taking it forward as a clinical candidate for testing in humans. Since GSK716 results in loss of inhibitory activity of α1‐antitrypsin, the effect of the compound was assessed on other closely related serpins. […] Furthermore, there were no off‐target effects in a panel of assays considered predictive of known safety liabilities that precluded further development of GSK716 (Table EV1).

Adrenergic α2C, sequence (P18825 whole entry): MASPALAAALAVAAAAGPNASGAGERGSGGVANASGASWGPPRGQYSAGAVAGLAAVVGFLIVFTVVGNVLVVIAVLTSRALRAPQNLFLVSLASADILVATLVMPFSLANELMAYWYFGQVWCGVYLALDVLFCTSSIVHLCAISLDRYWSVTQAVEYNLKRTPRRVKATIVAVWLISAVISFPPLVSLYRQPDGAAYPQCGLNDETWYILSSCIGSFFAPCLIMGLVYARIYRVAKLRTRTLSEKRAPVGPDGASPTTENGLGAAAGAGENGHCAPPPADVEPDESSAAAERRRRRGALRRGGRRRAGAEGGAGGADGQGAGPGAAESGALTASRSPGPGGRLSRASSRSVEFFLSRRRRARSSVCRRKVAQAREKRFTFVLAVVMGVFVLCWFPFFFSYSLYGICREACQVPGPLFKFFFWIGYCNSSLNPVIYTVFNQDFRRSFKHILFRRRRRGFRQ

For the compound `CCC[C@@H](NC(=O)c1cccc2c1CC(=O)N2)[C@@H](O)c1cccc(F)c1C` [GSK716], the EC50 in data set [1] (ZZ iPSC‐derived human hepatocytes, n = 14, read-out: mean pEC50, secretion (converted)) was 316 nM; in data set [1] (Homo sapiens, as quoted for the PK‐PD target concentration, cell system not stated there, read-out: cellular secretion assay EC50), 300 nM; on Adrenergic α2C, above 100 µM. Moreover, in data set [1] (ZZ iPSC‐derived human hepatocytes), the “increase in secreted levels of Z α1‐antitrypsin compared with vehicle control” value was “approximately threefold”. For the same compound, in the data set on CHO‐TET‐ON‐Z‐A1AT cells, the “sensitivity to tunicamycin (cell viability)” value is given as “restored sensitivity of Z α1‐antitrypsin expressing cells to that of the wild‐type control cells”. In addition, in the data set with human hepatocytes, the “metabolic clearance in human hepatocytes” value came to 0.31 ml/min/g tissue.
